Format in all cases: biochemical
In one assay the target is Pim-1 (Homo sapiens (Human), UniProt P11309). As to the kind of experiment: Pim-1 kinase assay. The note with it: 1 mM ATP; read-out: Pim1 IC50. Here is the method: Supplementation of the STOP buffer with beads and stopping the reactions were done under reduced light. Prior to the stopping reactions STOP buffer with beads was preincubated for 1 h in the dark at room temperature. After stopping the reactions, plates were incubated for 1 h in the dark at room temperature before reading on a PHERAstar FS plate reader (BMG Labtech) under reduced light.
Sequence of Pim-1 (P11309 whole entry): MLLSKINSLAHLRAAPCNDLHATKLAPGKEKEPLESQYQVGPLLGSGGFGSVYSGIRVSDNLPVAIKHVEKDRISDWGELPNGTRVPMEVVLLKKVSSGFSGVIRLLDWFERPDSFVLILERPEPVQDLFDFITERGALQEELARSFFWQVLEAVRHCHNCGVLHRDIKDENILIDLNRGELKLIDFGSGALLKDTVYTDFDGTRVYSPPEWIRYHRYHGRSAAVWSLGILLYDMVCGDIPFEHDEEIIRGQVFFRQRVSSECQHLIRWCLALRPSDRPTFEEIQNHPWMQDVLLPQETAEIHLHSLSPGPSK

A further assay concerns the target Pim-2 (Homo sapiens (Human), UniProt Q9P1W9). Description: Pim-2 kinase assay. The note with it: 1 mM ATP; read-out: Pim2 IC50. In short, it runs like this: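 Pim-2 (1 nM) with fluorescein-CREBtide ([…]) and 1 mM ATP in Tris pH 7.5, MgCl2, DTT buffer, 2 h at 25 °C. Stopped with EDTA plus Tb-anti-CREB pSer133 antibody; phosphorylation read by TR-FRET after 30 min.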

The target of the next assay is Pim-3 (Homo sapiens (Human), UniProt Q86V86). Description: Pim-3 kinase assay. The note with it: 1 mM ATP; read-out: Pim3 IC50. In a few lines: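 Human Pim-3 at 1.25 pM phosphorylated […] biotin-BAD peptide with 1 mM ATP for 1 h at 25° C, in pH 7.5 Tris buffer with 5 mM MgCl2 and 5 mM DTT. Reactions were stopped with EDTA buffer containing phospho-Bad (Ser112) antibody and AlphaScreen donor/acceptor beads. Plates were read after 1 h dark incubation at room temperature.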

SMILES strings stand for the structures. pIC50: −log10 of the molar value.

Sequence of Pim-2 (Q9P1W9 whole entry): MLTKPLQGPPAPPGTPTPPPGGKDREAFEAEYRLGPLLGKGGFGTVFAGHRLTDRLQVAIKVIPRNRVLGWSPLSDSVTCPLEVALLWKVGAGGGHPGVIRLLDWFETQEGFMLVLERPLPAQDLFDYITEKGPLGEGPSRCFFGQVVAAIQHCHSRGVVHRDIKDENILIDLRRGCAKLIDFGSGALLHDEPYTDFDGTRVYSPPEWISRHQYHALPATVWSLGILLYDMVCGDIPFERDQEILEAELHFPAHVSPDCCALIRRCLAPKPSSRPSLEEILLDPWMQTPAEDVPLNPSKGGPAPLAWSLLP

The pIC50 is the negative decadic logarithm of the IC50, by convention in mol/L. As for `C[C@@H]1C[C@H](N)CN(c2ccncc2NCc2ccc3occ(-c4ccc(CO)cc4F)c3n2)C1` [Example 100, (4-(5-((4-((3S,5R)-3-amino-5-methylpiperidin-1-yl)pyridin-3-ylamino)methyl)furo[3,2-b]pyridin-3-yl)-3-fluorophenyl)methanol], the pIC50 at Pim-1 is greater than 8.00; at Pim-2, no less than 7.00; on Pim-3, no less than 8.00.

As to `C[C@@H]1C[C@H](N)CN(c2ccncc2NCc2ccc3occ(C4CC4)c3n2)C1` [Example 102, 4-[(3S,5R)-3-Amino-5-methylpiperidin-1-yl]-N-[(3-cyclopropylfuro[3,2-b]pyridin-5-yl)methyl]pyridin-3-amine], the figures for the pIC50 on Pim-1, at Pim-2 and at Pim-3 were greater than 8.00, 6.00 to 7.00 and no less than 8.00, respectively.

Regarding `C[C@@H]1C[C@H](N)CN(c2ccncc2NCc2ccc(F)c(-c3c(F)cc(OCC(C)(C)O)cc3F)n2)C1` [Example 103, 1-(4-{6-[({4-[(3S,5R)-3-Amino-5-methylpiperidin-1-yl]pyridin-3-yl}amino)methyl]-3-fluoropyridin-2-yl}-3,5-difluorophenoxy)-2-methylpropan-2-ol], the pIC50 at Pim-1 was greater than 8.00; at Pim-2, no less than 7.00; at Pim-3, no less than 8.00.

Consider `C[C@H]1CN(c2ccncc2NCc2ccc(F)c(-c3c(F)cc(OCC(C)(C)O)cc3F)n2)C[C@@H](N)[C@@H]1O` [Example 104, (3R,4R,5S)-3-Amino-1-{3-[({6-[2,6-difluoro-4-(2-hydroxy-2-methylpropoxy)phenyl]-5-fluoropyridin-2-yl}methyl)amino]pyridin-4-yl}-5-methylpiperidin-4-ol], for which the pIC50 was greater than 8.00 at Pim-1, 6.00 to 7.00 on Pim-2 and no less than 8.00 on Pim-3.

On to `C[C@@H]1C[C@H](N)CN(c2ccncc2NCc2ccc(F)c(-c3c(F)cc(C(C)(C)O)cc3F)n2)C1` [Example 105, 2-(4-{6-[({4-[(3S,5R)-3-Amino-5-methylpiperidin-1-yl]pyridin-3-yl}amino)methyl]-3-fluoropyridin-2-yl}-3,5-difluorophenyl)propan-2-ol], for which the pIC50 is greater than 8.00 at Pim-1, no less than 7.00 at Pim-2 and no less than 8.00 at Pim-3.

On to `C[C@H]1CN(c2ccncc2NCc2ccc(F)c(-c3c(F)cc(C(C)(C)O)cc3F)n2)C[C@@H](N)[C@@H]1O` [Example 106, (3R,4R,5S)-3-Amino-1-{3-[({6-[2,6-difluoro-4-(1-hydroxy-1-methylethyl)phenyl]-5-fluoropyridin-2-yl}methyl)amino]pyridin-4-yl}-5-methylpiperidin-4-ol], for which the pIC50 on Pim-1 is greater than 8.00; at Pim-2, no less than 7.00; at Pim-3 it was no less than 8.00.

Regarding `C[C@H]1CN(c2ccncc2NCc2ccc3ccc(-c4ccn(C)c(=O)c4F)cc3n2)C[C@@H](N)[C@@H]1O` [Example 107, 4-{2-[({4-[(3R,4R,5S)-3-Amino-4-hydroxy-5-methylpiperidin-1-yl]pyridin-3-yl}amino)methyl]quinolin-7-yl}-3-fluoro-1-methylpyridin-2(1H)-one], the pIC50 is greater than 8.00 on Pim-1, no less than 7.00 on Pim-2 and no less than 8.00 at Pim-3.

Regarding `C[C@@H]1C[C@H](N)CN(c2ccncc2NCc2nc(-c3c(F)cccc3F)c(F)cc2N)C1` [Example 108, 2-[({4-[(3S,5R)-3-Amino-5-methylpiperidin-1-yl]pyridin-3-yl}amino)methyl]-6-(2,6-difluorophenyl)-5-fluoropyridin-3-amine], the pIC50 on Pim-1 is greater than 8.00; at Pim-2, no less than 7.00; on Pim-3, no less than 8.00.

In the case of `Nc1cc(F)c(-c2c(F)cccc2F)nc1CNc1cnccc1N1C[C@@H](N)C[C@@H](C(F)(F)F)C1` [Example 109, 2-[({4-[(3S,5R)-3-Amino-5-(trifluoromethyl)piperidin-1-yl]pyridin-3-yl}amino)methyl]-6-(2,6-difluorophenyl)-5-fluoropyridin-3-amine], the pIC50 was greater than 8.00 on Pim-1, no less than 7.00 on Pim-2 and no less than 8.00 at Pim-3.

On to `C[C@@H]1C[C@H](N)CN(c2ccnc(F)c2NCc2ccc(F)c(-c3c(F)cccc3F)n2)C1` [Example 110, 4-[(3S,5R)-3-Amino-5-methylpiperidin-1-yl]-N-{[6-(2,6-difluorophenyl)-5-fluoropyridin-2-yl]methyl}-2-fluoropyridin-3-amine], for which the results for the pIC50 on Pim-1, at Pim-2 and at Pim-3 were greater than 8.00, no less than 7.00 and no less than 8.00, respectively.

As to `CC(Nc1cnccc1N1C[C@H](C)C[C@H](N)C1)c1ccc(F)c(-c2c(F)cccc2F)n1` (stereo partly drawn) [Example 111, 4-[(3S,5R)-3-Amino-5-methylpiperidin-1-yl]-N-{1-[6-(2,6-difluorophenyl)-5-fluoropyridin-2-yl]ethyl}pyridin-3-amine], the pIC50 at Pim-1 was greater than 8.00; at Pim-2, no less than 7.00; at Pim-3, no less than 8.00.

(Values after patent US9802918B2, “Pyridineamine compounds useful as Pim kinase inhibitors” (Incyte Corporation, priority 2015, dated 2017).)
